Columns and labels:
proHB-EGF [1] = assay: Flow cytometry of cell surface proHB-EGF in non-transfected COS-7 cells; assay type: cell-based; conditions: within 10 minutes, FIG. 4c
EGFR = EGFR tyrosine phosphorylation in PC-3 prostate carcinoma cells; assay type: cell-based, human; conditions: PC-3 cells starved for 36 hours; 3 minutes stimulation; FIG. 4f
SHC = SHC tyrosine phosphorylation in Rat-1/EP-R cells; assay type: cell-based; conditions: tyrphostin pretreatment (AG1478 250 nM, AG1295 1 μM), FIG. 1e
human EGFR (HERc) = assay: Intercellular transactivation: HERc tyrosine phosphorylation in Rat-1/M1R + Rat-1/HERc co-culture; assay type: cell-based; conditions: carbachol 1 mM; for effect on EGFR (HERc) tyrosine phosphorylation in response to M1R agonist carbachol: confluent co-cultures of Rat-1/M1R and Rat-1/HERc cells, preincubation, FIG. 2b, 2c
proHB-EGF [2] = assay type: cell-based

In the case of `CCCCCCCCCCCCCC(=O)O[C@@H]1[C@@H](C)[C@@]2(O)[C@@H](C=C(CO)C[C@]3(O)C(=O)C(C)=C[C@@H]23)[C@@H]2C(C)(C)[C@]12OC(C)=O` [TPA, tetradecanoyl-phorbol-13-acetate], the “content of cell surface proHB-EGF after addition of agonist” value (from here on “content of cell surface proHB-EGF”) (proHB-EGF [1]) is reported as “reduced” and the “induction of tyrosine phosphorylation of the EGFR by agonist” value (EGFR) is reported as “induce tyrosine phosphorylation”.
For lysophosphatidic acid [LPA], the “content of cell surface proHB-EGF” value (proHB-EGF [1]) was “reduced”.
In the case of “EGF: epidermal growth factor, EGFR ligand used as control stimulus (NSDSECPLSHDGYCLHDGVCMYIEALDKYACNCVVGYIGERCQYRDLKWWELR; UniProt P01133 971-1023, looked up)”, the “content of cell surface proHB-EGF” value (proHB-EGF [1]) is reported as “no effect” and the “induction of tyrosine phosphorylation of the EGFR by agonist” value (EGFR) is reported as “induce tyrosine phosphorylation”.
For `COc1cc2ncnc(Nc3cccc(Cl)c3)c2cc1OC` [AG1478], the “effect on SHC tyrosine phosphorylation following thrombin stimulation” value (SHC) was “completely blocked”.
For `[O-][Cl+2]([O-])O` [chlorate], the “effect on EGFR (HERc) tyrosine phosphorylation in response to M1R agonist carbachol” value (human EGFR (HERc)) was “completely inhibited”.
With heparitinase the “effect on EGFR (HERc) tyrosine phosphorylation in response to M1R agonist carbachol” value (human EGFR (HERc)) was “completely inhibited”.
In the case of `Cc1cc2ncc(-c3ccccc3)nc2cc1C` [AG1295], the “effect on SHC tyrosine phosphorylation following thrombin stimulation” value (SHC) is reported as “remained unaffected”.
With `C[N+](C)(C)CCOC(N)=O` [carbachol] the “induction of tyrosine phosphorylation of HERc by agonist” value (human EGFR (HERc); Rat-1/M1R + Rat-1/HERc co-culture, FIG. 2a) was “rapidly induced tyrosine phosphorylation” and the “proteolytic processing of membrane-anchored proHB-EGF upon agonist stimulation” value (proHB-EGF [2]) was “rapid breakdown”.
